Experimental data as given in PMC4726814, “Molecular Characterization of E-Type Prostanoid Receptor 4 (EP4) from Ayu (Plecoglossus altivelis) and Its Functional Analysis in the Monocytes/Macrophages” (PLoS ONE, 2016).

Molecular target: T1, PaEP4L (Plecoglossus altivelis, UniProt A0A142DUN0)
T1 construct: gene EP4; MG1 insect cell membranes
Test: [3H]-PGE2 saturation binding to MG1 insect cell membranes, Scatchard

T1 sequence (A0A142DUN0 1-459): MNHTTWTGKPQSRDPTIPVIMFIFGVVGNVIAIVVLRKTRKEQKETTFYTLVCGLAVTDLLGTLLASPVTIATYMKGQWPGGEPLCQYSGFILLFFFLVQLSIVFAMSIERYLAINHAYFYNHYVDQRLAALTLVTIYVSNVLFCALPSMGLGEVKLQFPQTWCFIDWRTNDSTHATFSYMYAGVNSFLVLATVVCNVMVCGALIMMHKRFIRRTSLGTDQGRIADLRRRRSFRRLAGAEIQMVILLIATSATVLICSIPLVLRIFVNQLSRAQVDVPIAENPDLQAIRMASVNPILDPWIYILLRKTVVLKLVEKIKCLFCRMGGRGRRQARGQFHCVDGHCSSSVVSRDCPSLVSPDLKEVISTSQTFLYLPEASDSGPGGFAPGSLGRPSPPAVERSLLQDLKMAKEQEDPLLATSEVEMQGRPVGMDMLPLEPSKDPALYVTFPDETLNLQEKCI

Kd: 120 nM
Structure (SMILES): CCCCC[C@H](O)/C=C/[C@H]1[C@H](O)CC(=O)[C@@H]1C/C=C\CCCC(=O)O [PGE2]
